This passage reports inhibition results from article PMC8964833, “Identification of cell wall synthesis inhibitors active against Mycobacterium tuberculosis by competitive activity-based protein profiling” (Cell Chemical Biology, 2022).

Read-outs that look alike come from different tables or passages of the source.

Assay [1] concerns the target T1, Pks13 (Mycobacterium tuberculosis, UniProt I6X8D2). Briefly: cell-based. To be noted: Mycobacterium tuberculosis H37Rv, read-out: % inhibition.
The target in assay [2] is T1, Pks13. Briefly: cell-based. The conditions noted are these: Mycobacterium tuberculosis H37Rv, read-out: % inhibition. This is another data set of the same source.

T1 sequence (I6X8D2 whole entry, looked up): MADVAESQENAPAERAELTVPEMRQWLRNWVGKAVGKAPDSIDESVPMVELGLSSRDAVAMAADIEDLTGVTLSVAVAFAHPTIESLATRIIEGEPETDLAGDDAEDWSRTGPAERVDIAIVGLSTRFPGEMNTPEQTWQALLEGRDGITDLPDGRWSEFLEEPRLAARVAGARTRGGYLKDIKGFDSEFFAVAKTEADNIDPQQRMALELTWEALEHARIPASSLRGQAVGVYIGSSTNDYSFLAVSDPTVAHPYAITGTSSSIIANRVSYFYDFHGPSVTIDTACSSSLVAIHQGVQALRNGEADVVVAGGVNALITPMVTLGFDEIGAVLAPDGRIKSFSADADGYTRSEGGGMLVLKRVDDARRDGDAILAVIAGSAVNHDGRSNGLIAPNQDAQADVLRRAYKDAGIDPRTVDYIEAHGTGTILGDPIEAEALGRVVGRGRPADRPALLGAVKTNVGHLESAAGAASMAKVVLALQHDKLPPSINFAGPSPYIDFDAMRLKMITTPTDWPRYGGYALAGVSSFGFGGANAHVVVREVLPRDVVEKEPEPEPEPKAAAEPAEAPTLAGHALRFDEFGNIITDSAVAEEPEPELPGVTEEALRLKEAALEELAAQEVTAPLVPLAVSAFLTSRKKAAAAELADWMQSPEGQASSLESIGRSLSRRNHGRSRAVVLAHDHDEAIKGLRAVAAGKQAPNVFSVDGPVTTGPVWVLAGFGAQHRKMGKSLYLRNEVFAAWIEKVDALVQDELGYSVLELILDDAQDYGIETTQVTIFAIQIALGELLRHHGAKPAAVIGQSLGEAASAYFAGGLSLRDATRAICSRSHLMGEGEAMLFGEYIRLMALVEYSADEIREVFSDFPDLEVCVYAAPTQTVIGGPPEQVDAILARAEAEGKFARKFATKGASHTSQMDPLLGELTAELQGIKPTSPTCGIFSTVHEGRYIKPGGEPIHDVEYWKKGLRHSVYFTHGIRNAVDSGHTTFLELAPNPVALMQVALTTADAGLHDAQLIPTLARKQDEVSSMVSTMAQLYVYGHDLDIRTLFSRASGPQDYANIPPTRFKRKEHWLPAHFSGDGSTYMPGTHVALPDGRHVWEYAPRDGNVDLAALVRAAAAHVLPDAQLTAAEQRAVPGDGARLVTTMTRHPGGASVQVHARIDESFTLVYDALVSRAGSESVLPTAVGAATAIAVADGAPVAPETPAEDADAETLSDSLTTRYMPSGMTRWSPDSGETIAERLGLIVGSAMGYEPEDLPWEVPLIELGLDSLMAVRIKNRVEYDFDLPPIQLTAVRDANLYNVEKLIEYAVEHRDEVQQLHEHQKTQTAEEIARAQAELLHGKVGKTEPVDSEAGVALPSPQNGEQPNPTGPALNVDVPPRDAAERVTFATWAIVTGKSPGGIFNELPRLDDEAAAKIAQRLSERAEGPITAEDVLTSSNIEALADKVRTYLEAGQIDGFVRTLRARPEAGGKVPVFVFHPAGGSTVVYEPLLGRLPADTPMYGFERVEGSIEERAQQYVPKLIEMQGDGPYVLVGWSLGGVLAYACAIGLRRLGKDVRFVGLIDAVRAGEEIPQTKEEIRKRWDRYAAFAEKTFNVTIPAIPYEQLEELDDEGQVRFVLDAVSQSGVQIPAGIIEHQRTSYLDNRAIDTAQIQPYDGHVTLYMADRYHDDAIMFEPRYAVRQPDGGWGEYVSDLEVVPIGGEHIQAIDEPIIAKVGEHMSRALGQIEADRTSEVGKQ

As to `CC(C)(O)c1cnn(C(=O)N2CCC(C(C)(C)C)CC2)n1` [AA692-(2,4), AA692], the results for the inhibition at 13 µM in assay [1] and in assay [2] were 0% and 18%, respectively.
`CC(C)(O)c1cnn(C(=O)N2CCCCC2)n1` [AA702]: in assay [2], the inhibition at 13 µM was determined as 0%.
